We go through one substance from paper PMC11865978, “Cellular Activity of CQWW Nullomer-Derived Peptides” (ACS Omega, 2025).

Holding throughout (assay type): cell-based, human
One assay deals with GSK-3. The assay is described as follows: Reverse phase protein array (RPPA). The settings on record: peptides at 3 μM, 3 h and 24 h (peptide 7: 24 h only), seven cell lines; fold difference vs water control. An excerpt:
The phenotypic effect of the peptides was visualized by live cell imaging (Figure 1C, IncuCyte live cell imager) and also quantified via image analysis of cells labeled with the cell painting reagents (see Supporting Information) followed by image analysis using Cell Profiler (cellprofiler.org). Multiparametric outputs from Cell Profiler were processed using Phenonaut[46] [v 2.0.3] (see Jupyter notebook ‘Phenonaut_processing_of_nullomer_data.ipynb’ in the Aminonaut repository for methods and code used). […] Peptides 2, 5, and 7 were deemed to have the most merit for mode of action determination using reverse phase protein arrays (RPPAs) (see Supporting Information for methods). […]
growth and stemness was further supported by the addition of laminin extracellular matrix (Cultrex 3446-005-01, 4-10 mg/mL) to the growth media and to create pre-coated flasks/384w plates. Cells were cultured in T75 cm2 flasks and passaged as follows: Glioma stem cells generally grow slowly (~60hrs doubling time, excepting GCGR-E57 cells ~24hrs) and lag phase was exacerbated by sparse seeding. Cell confluence is generally ~80 -90% prior to passaging, whereby the culture media was aspirated, the cells washed (PBS) and Accutase solution (Sigma A6964, 1 mL) was added to detach the cells, which were then incubated at 37 °C for <5 minutes. Cells were resuspended in media and centrifuged for 3 minutes at 300 × g. Resuspended cells were typically split 1:5, 1:8 (GCGR-E57 cells) and 1:2, 1:4 for the remainder of cell lines, depending on requirements . Cells were passaged every 4-7 days to maintain health and growth and discarded after 3 months, whereupon a fresh batch of cells […]
Reverse Phase Protein Array (RPPA)
Culture media was aspirated and cells washed with wash media. Accutase solution (1mL) was used to detach the cells which were then incubated at 37 °C for 5 minutes. 10 mL of wash media was added, and the cells were pipetted into a 15 mL conical tube, after which they were centrifuged for 3 minutes at 300× g to form a pellet. Supernatant was aspirated, and cells resuspended in 5 mL of wash media. A 10 μL sample of the cell suspension was pipetted onto the reading surface of a DeNovix CellDrop automated cell counter and the reading was used to dilute the suspension in complete media to 250,000 cells/mL. 2 mL of this suspension was added to each well of 6-well plates to seed plates at 500,000 cells per well. 2 plates of each cell type (GCGR-E13, GCGR-E21, GCGR-E28, GCGR-E31, GCGR-E34, GCGR-E57 and GCGR-NS9FB_B) were seeded, one each for two nullomer dosage […]
timepoints (3 h and 24 h). The cells were incubated in the 6-well plates overnight, and dosing was carried out in the following morning. […]

Another assay relates to GCGR-E57. The note with it: 72 h. As to the method: (§1) Peptides were tested in an automated image-based high-content[42] cell painting[43],[44] assay that was originally developed to explore the mechanism of action of pharmacological and genetic perturbations within cells,[45] as well as a live cell imaging assay against six patient-derived glioblastoma cell lines (GCGR-E13, GCGR-E28, GCGR-E21, GCGR-E57, GCGR-E31, and GCGR-E34), covering classical, mesenchymal, and proneural subtypes, respectively (see Methods and Figure 1B–D), along with a healthy human fetal neuronal stem cell line (GCGR-NS9FB_B).
(§2) Cell survival was quantified by nuclei counts from the Hoechst dye-stained nuclei and IC50 values calculated along with 95% confidence intervals (Figure 1B; see Table S2 for full details). […]
(§3) High Content Phenotypic Screening assays
Cell lines (glioma stem cell lines and normal foetal neural stem cells) were seeded on laminin (10 µg/mL) coated 384-well plates (Greiner Bio-One, 781091) at 1,000 cells/well and incubated overnight at 37 °C and 5% CO2. Aqueous peptide solutions (10 mM) were further diluted to 1 mM in water containing 10 % glycerol and 0.01 % TX-100. Cells were dosed using a D300 digital dispenser (Tecan) by 10-point dose response (30 µM – 1 µM) in triplicate and with aqueous glycerol/TX-100 as control. The cells were placed in an IncuCyte live cell imager (Essen BioScience) and imaged every three hours for 72 hours. Prior to fixation, the plates were removed from the IncuCyte and stained with Mitrotracker DeepRed (Invitrogen, M22426, 300 nM, 30 minutes). Cells were then fixed using 4 % formaldehyde and permeabilized with 0.1 % TX-100 in PBS. The cells were stained with ‘Cell Painting’ […]
(§4) assay reagents1: Hoechst 33342 (10 mg/mL stock, Molecular Probes, 1:5000), SYTO14 […]
(§5) BSA/PBS. The plates were imaged using an ImageXpress high content microscope (Molecular Devices). Cells were imaged with a 20× objective, covering 6 fields-of-view in each well. The data was then analyzed using a custom CellProfiler software pipeline using the University of Edinburgh high performance computing cluster. Dose response plots were calculated using HC StratomineR (corelifeanalytics.com). Nuclei count data was analyzed separately to generate cell survival metrics (normalized to aqueous glycerol/TX -100 control). […]

The next assay deals with GCGR-E34. The settings on record: 72 h. As to the method:
as §1, §2, §3
(§6) Cell lines (glioma stem cell lines and normal foetal neural stem cells) were seeded on laminin (10 µg/mL) coated 384-well plates (Greiner Bio-One, 781091) at 1,000 cells/well and incubated overnight at 37 °C and 5% CO2. Aqueous peptide solutions (10 mM) were further diluted to 1 mM in water containing 10 % glycerol and 0.01 % TX-100. […]
(§7) The cells were placed in an IncuCyte live cell imager (Essen BioScience) and imaged every three hours for 72 hours. Prior to fixation, the plates were removed from the IncuCyte and stained with Mitrotracker DeepRed (Invitrogen, M22426, 300 nM, 30 minutes). Cells were then fixed using 4 % formaldehyde and permeabilized with 0.1 % TX-100 in PBS. The cells were stained with ‘Cell Painting’ […]
as §4, §5

Another assay concerns GCGR-E13. The settings on record: 72 h. The procedure:
as §1, §2, §3, §6, §7, §4, §5

In the next assay the test system is GCGR-E21. The note with it: 72 h. The procedure:
as §1, §2, §3, §6, §7, §4, §5

A word on the IC50: it is the point on the concentration scale where inhibition reaches its midpoint. Low readings indicate greater potency, high ones weaker potency. In the case of H-RRRRRCQWW-NH2 [Peptide 2], in the assay with GSK-3, the “GSK-3 regulation in RPPA” value is “downregulation of GSK-3β”. Further, the IC50 in the assay with GCGR-E57 is 4.3 µM; in the assay with GCGR-E34, 5.2 µM; with GCGR-E13 it was 4.4 µM; in the assay on GCGR-E21, 4.8 µM.
